# Source: patent US20150030668A1 (priority 2012, published 2015)
# Like-named read-outs stand apart in the source and are kept apart here.
# How the values were obtained:
# [1] = tested on: Mycobacterium tuberculosis; conditions: NAC at 10 millimolar
# [2] = rat liver, CO-60, control (water) = 0%
# From the text: The tissue from the control animals (water) served as the 100% of the toxin remaining in the tissue. The animals receiving: • a.
# [3] = tested on: aflatoxin B1-induced hepatic nodules or tumors; conditions: mouse, in vivo; cited from earlier work
Compound,CFU/ml reduced to [1],removal of the toxin [2] [%],removal of the toxin ([2]; listed as Intravenous glutathione) [%],decreasing the incidence or size of hepatic nodules or tumors [3]
"CC(=O)N[C@@H](CS)C(=O)O [NAC, N-acetyl cysteine]","8,000 CFU/ml",,,
"N[C@@H](CCC(=O)N[C@@H](CS)C(=O)NCC(=O)O)C(=O)O [Plain glutathione, glutathione (reduced)]",,10,70,no benefit
